Results on 5 compounds are retold here after US6423869B1, “Polyol-amino acid compounds having anti-helicobacter pylori activity” (Takeda Chemical Industries, Inc., priority 1997, dated 2002).

In brackets after ≈: the same amount, converted by molar mass.

Experiment [1] has as its system Helicobacter pylori (NCTC 11637). Put plainly: In vitro antibacterial test, agar dilution method (MIC). The experiment is classed as cell-based. To be noted: NCTC11637, 96 h, 7% horse blood-Brucella agar, 37° C., 4 days, read-out: MIC (minimal inhibitory concentration). Background: In agar dilution the substance is mixed into plates at graded concentrations.
For experiment [2], the system named is Helicobacter pylori TN2F4. Put plainly: In vivo antibacterial test in infected mice. The note with it: mice (Crj: ICR), 50 mg/kg orally twice daily for 2 days, cleared/total (%), hydrochloride. Here is the method:
In vivo Antibacterial Test
Mice (Crj: ICR, male, aged 5 weeks) were deprived of food for 20 hours and 6.17×10^7 CFU/mouse of Helicobacter pylori TN2F4 was inoculated into the stomach. Starting 11 days after infection, 50 mg/kg of the test compound suspended in 0.5% methyl cellulose/water was adminstered orally twice. daily, in the morning and evening, for 2 consecutive days. On the day following the last dose, the stomach was isolated from the infected mouse and homogenized and a 10-fold dilution series of the homogenate was inoculated on activated charcoal-modified Skirrow medium. Cultivation was carried out microaerobically at 37° C. for 4 days and the eradication rate was determined according to growth of the bacteria.
The number of bacteria was expressed in mean±standard error and the statistical analysis was made in comparison with the control group by the Dunnett method.

The subject of a further experiment is gram-negative bacteria. To be noted: cited from earlier work.
Experiment [3] concerns Helicobacter pylori TN2GF4. As to the kind of experiment: Gastric infection in mongolian gerbils, repetitive administration. The experiment is classed as in vivo. Here is the method:
Five-week-old MON/Jms/Gbs mongolian gerbils were inoculated intragastrically with 10^7.58 CFU of Helicobacter pylori TN2GF4. Four weeks after infection, a compound of the Example 47, suspended in 0.5% methyl cellulose, was administered orally at a dose of 30 mg/kg twice daily for 2 days. The animals were killed on the day after the final treatment. Stomachs were removed and homogenized with 3 ml of brucella broth, and the bacterial count in the homogenates was determined by serial dilution and titration on modified Skirrow's plates. The plates were incubated at 37° C. for 4 days in a microaerobic atmosphere prior to counting. No detectable Helicobacter pylori in the stomach on the day after final treatment was defined as clearance. Effect of repetitive administration of a compound of the Example 47 against gastric infection caused by H. pylori TN2GF4 in MON/JmsIGbs mongolian gerbils

The mark [4] stands for this setting: 30 mg/kg twice daily for 2 days.

In the case of `CC(C)C[C@H](NC(=O)[C@@H](NC(=O)[C@@H](N)C(C)C)C(C)C)C(=O)N[C@@H](CO)[C@@H](O)[C@@H](O)[C@H](O)C(=O)N[C@@H](CC(=O)O)c1ccccc1` [HC-70I, (S)-3-[(2S,3R,4R,5S)-2,3,4,6-tetrahydroxy-5-(L-valyl-L-valyl-L-leucyl)aminohexanoyl]amino-3-phenylpropionic acid], in experiment [1], the MIC was 0.025 µg/mL (≈ 0.0382 µM).

Turning to `CC(C)C[C@H](NC(=O)[C@@H](N)C(C)C)C(=O)N[C@@H](CO)[C@@H](O)[C@@H](O)[C@H](O)C(=O)N[C@@H](CC(=O)O)c1ccccc1.Cl` [HC-70II.HCl, (S)-3-[(2S,3R,4R,5S)-2,3,4,6-tetrahydroxy-5-(L-valyl-L-leucyl)aminohexanoyl]amino-3-phenylpropionate hydrochloride], the “Clearance rate (%)” value in experiment [2] turned out to be 100%.

As for `NCC1OC(OC2C(N)CC(NC(=O)C(O)C(O)C(O)C(N)CO)C(O)C2OC2OC(CO)C(O)C2O)C(N)C(O)C1O` (stereo not shown), in the experiment with gram-negative bacteria, the “activity against gram-negative bacteria” value was “active against gram-negative bacteria”.

As to `C=CC[C@H](N)C(=O)N[C@@H](CO)[C@@H](O)[C@@H](O)[C@H](O)C(=O)N[C@@H](CC(=O)O)c1ccccc1` [Example 47, (S)-3-[(2S,3R,4R,5S)-5-((S)-2-amino-4-pentenoyl)amino-2,3,4,6-tetrahydroxyhexanoyl]amino-3-phenylpropionic acid], in experiment [3] (setting [4]), the “clearance attained (gerbils cleared out of total)” value was 2 out of 4 and the “number of infecting organism” value is “decreased the number of infecting organism”. Besides, the “Bacterial recovery Log CFU/gastric wall Mean ± SE” value in experiment [3] (MON/Jms/Gbs mongolian gerbils, 30 mg/kg orally twice daily for 2 days) is on record as 2.23 ± 0.44 Log CFU/gastric wall.

On to `CC(C)C[C@H](NC(=O)[C@@H](N)C(C)C)C(=O)N[C@@H](CO)[C@@H](O)[C@@H](O)[C@H](O)C(=O)N[C@@H](CC(=O)O)c1ccccc1` [HC-70II, (S)-3-[(2S,3R,4R,5S)-2,3,4,6-tetrahydroxy-5-(L-valyl-L-leucyl)aminohexanoyl]amino-3-phenylpropionic acid], for which the MIC in experiment [1] stood at 0.025 µg/mL (≈ 0.0451 µM).
